For assay [1], the system named is dpiB promoter (dpiBA operon). In words: dpiB/lacZ reporter fusion (pHI1508), β-galactosidase synthesis. Format: cell-based, E. coli. As to conditions: for expression of the dpi operon (lacZ reporter fusion to the dpiB promoter): E. coli UT481 pHI1508, 30° C., antibiotics at approximately twice the MIC (FIG. 2A). How it is done: FIGS. 2A-2C. […] (A) Expression of the dpi operon as measured in lacZ^− E. coli strain UT481 by a lacZ reporter fusion to the dpiB promoter on pHI1508 [in Miller units]. Bacteria were grown at 30° C. with or without (black squares) antibiotics. […] All antibiotics were added at approximately twice the MIC value for E. coli. All points represent the average of at least three separate experiments. (B) Induction of dpiB/lacZ (as measured by β-galactosidase expression calculated in Miller units) in E. coli JOE339, a lacZ^− mutant strain that carries an ftsl^ts mutation. […] (C) Same as (B) but in MC4100, the parent of JOE339. For (B) and (C), bars indicate SD.
We wished to identify stimuli that activate the dpiBA operon; to monitor such activation, we fused a Hind III-Sma I DNA segment containing the region 5′ to dpiB to a lacZ reporter gene fragment (pHI1508 in FIG. 1A) pHI1508 carries a HindIII-SmaI fragment containing the dpiBA operator/promoter and the first 1219 nucleotides of dpiB (indicated by the heavy bar), inserted into the StuI-HindIII sites of pHI1496, fusing it to the lacZ reporter gene (S1). β-Galactosidase synthesis from this construct was investigated under a variety of growth-limiting conditions known to activate two-component systems and/or the SOS response (including growth in media containing different carbon sources; starvation for O2, PO4, or carbon; heat or cold shock; high salt; exposure to ultraviolet light; culture in stationary phase or in conditioned media; and concentration to a high cell density).

The subject of assay [2] is pabA promoter (gene up-regulated by DpiA). In words: pabA/lacZ fusion (pHI1627), β-galactosidase production. The class given is cell-based, E. coli. To be noted: ampicillin 10 μg/ml, 2 hours, 37° C. The source says: A library of E. coli promoters fused to a lacZ gene fragment was constructed as follows: SC1088 chromosomal DNA was partially digested with Sau3AI and 1-2 kb fragments were gel extracted, purified, and ligated to the BamHI site of pHI1496, a lacZ expression vector conferring chloramphenicol resistance (S1). […] Three clones were sequenced and found to contain a 5 kb insert in which the melR promoter region was fused to lacZ (pHI1626), a 300 bp fragment that includes the promoter region of pabA (pHI1627), and a 2.5 kb insert containing the 57-minute region of the E. coli chromosome (pHI1628).

The subject of assay [3] is dpiBA transcripts. In words: quantitative RT-PCR of dpiBA transcripts. Format: cell-based, E. coli. As to conditions: SC1088, 30° C., ampicillin 4 μg/ml for 4 hours (FIG. 1C). The source says: (§1) FIGS. 1A-1C. Structure and transcripts of the dpiBA operon. (A) The dpiB and dpiA genes are aligned in the 5′-3′ direction; citC is 5′ of the dpiBA promoter/operator region and is transcribed divergently from it. The segment of the dpiBA operon included in plasmid pHI1508 is indicated. (B) Agarose gel electrophoresis showing bands generated by reverse transcription PCR amplification of E. coli SC1088 RNA using pairs of oligonucleotide primers corresponding to sequences within dpiB (lane 1, primers a+b), dpiA (lane 2, primers c+d), or both genes (lane 3, primers a+d). Locations of primer sequences are indicated in (A). […] Amounts of template RNA used and loaded onto gels were equal, as assessed by intensity of 16S rRNA bands (bottom panel).

Assay [4] has as its system citC gene. In words: quantitative RT-PCR of citC expression. The class given is cell-based, E. coli. As to conditions: SC1088, 30° C., ampicillin 4 μg/ml for 4 hours (FIG. 1C).
Description: as §1

Assay [5] has as its system SOS-regulated promoter of the sfiA gene. Put plainly: sfiA/lacZ fusion, measure of SOS response. Format: cell-based, E. coli. The source says:
FIGS. 3A-3B. SOS response induced by PBP3 inactivation. […] Both (A) and (B) are averages of three separate experiments. Strains were constructed by P1 transduction. Strain 1088 was transduced with phage P1 from E. coli strains containing recA::Tn10(S3) and lexA71::Tn5 (from Mary Berlyn, CGSC). Strain BR5171 is BR3151 (S4) containing a kanamycin resistance gene introduced into the dpiA locus to create a null mutation; another BR3151 derivative, BR7171, contains a Tn10 insertion in the recA locus to create a null mutation. […] An sfiA/lacZ fusion closely linked to a kanamycin resistance marker (S5) was incorporated into the chromosome of ftsIts strain JOE339 and a JOE339 derivative containing a chloramphenicol resistance gene in the dpiA gene (S1).
A biological consequence of DpiA overexpression is induction of the SOS response; the extent of such induction can be determined by β-galactosidase synthesis from a lacZ fusion with the SOS-regulated promoter of the sfiA gene [e.g. Bacolla et al. (2001) J. Biol. Chem. 276, 18579; Hendricks et al. (2000) Mol. Microbiol. 36, 973], which prevents FtsZ polymerization and inhibits cell division when SOS is activated.
The dependence of β-lactam/PBP3-mediated SOS induction on dpiA contrasted with the lack of effect of the dpiA mutation on RecA expression induced by the DNA damaging agent mitomycin C, indicating the distinctive nature of the cell wall-mediated and DNA damage-mediated paths to SOS induction.

In assay [6] the test system is RecA protein. Put plainly: Western blot with anti-RecA antibody. To be noted: one hour of exposure, relative to absence of induction. Format: cell-based, E. coli. The source says:
Chemiluminescence of bands was quantitated using a BioRad Versadoc 1000 instrument.

The subject of assay [7] is E. coli SC1088 wild-type and dpiA, recA, sfiA null mutants. In words: survival of bacterial cultures exposed to antibiotic (cfu counting). Format: cell-based. To be noted: for effectiveness (survival) in recA mutant cells versus wild type SC1088: naladixic acid 5 μg/ml, pipericillin 1 μg/ml, kanamycin 5 μg/ml (FIGS. 5A-5C). As for the experimental part: FIG. 4. Effect of SOS response induction on survival of bacterial cells expressing DpiA during β-lactam exposure. […] Survival data are also shown for strains containing null mutations in recA (open diamonds), dpiA (open circles), or sfiA (open triangles). […] Percent survival was determined by counting of colony forming units (cfu's), at least 200 colonies were counted per time point, and plotted as a function of exposure time before exposure or after exposure to antibiotics.
Because β-lactam antibiotics kill only bacteria that are dividing, we hypothesized that the ability of these drugs to induce the SOS response, and consequently delay cell division by increasing the expression of sfiA, may provide temporary protection from β-lactam lethality.
The experiments shown in FIG. 4 were repeated with the antibiotics: naladixic acid, at 5 μg/ml; pipericillin, at 1 μg/ml; and kanamycin at 5 μg/ml. As shown in FIGS. 5A-5C, the black squares are wild type cells, strain SC1088, the green circles are the dpiA null strain in that background, and the red diamonds are the recA mutation in that background.

The subject of assay [8] is dpiB promoter (dpiBA operon). Put plainly: dpiB/lacZ reporter fusion (pHI1508), β-galactosidase synthesis. Format: cell-based, E. coli. As to conditions: ampicillin 10 μg/ml, 2 hours, 37° C.
Assay [9] has as its system E. coli PBPs. To be noted: cited from earlier work.

On to `CC1(C)S[C@@H]2[C@H](NC(=O)[C@H](N)c3ccccc3)C(=O)N2[C@H]1C(=O)O` [ampicillin], for which the “expression of the dpi operon (lacZ reporter fusion to the dpiB promoter)” value (shortened to “expression of the dpi operon”) in [1] is recorded as “stimulated”. Also, the “induction of the dpi operon” value in [1] (ampicillin resistant bacteria carrying a plasmid borne gene encoding β-lactamase) is listed as “not observed”. The β-Galactosidase production in assay [2] (WT strain 1088 + pHI1627) is 185 ± 20 Miller units; in assay [2] (dpiA null mutant + pHI1627), 18 ± 1 Miller units; in [8] (WT strain 1088 + pHI1508), 345 ± 50 Miller units; in assay [8] (dpiA null mutant + pHI1508), 113 ± 15 Miller units; in assay [8] (lexA null mutant + pHI1508) it was 110 ± 10 Miller units; in assay [8] (recA null mutant + pHI1508), 80 ± 8 Miller units. Further, the “increase in dpiBA transcripts” value in assay [3] is given as “fourfold”. The “increase in expression of citC gene” value in [4] was “threefold”. For the same compound, the “lacZ expression from sfiA/lacZ fusion” value in [5] (BR3151, ampicillin 4 μg/ml (FIG. 3A)) is “increased lacZ expression”. The sfiA/lacZ expression result in assay [5] (bacteria containing a dpiA null mutation, ampicillin 4 μg/ml (FIG. 3A)) is listed as “no change”. Besides, in assay [5] (recA or lexA mutants, ampicillin treatment (FIG. 3A)), the “effect on expression of the sfiA/lacZ fusion” value is on record as “prevented the effects”. The RecA protein increase entry is “no increase” in assay [6] (dpiA::Km null mutant) and 1.9±0.4 fold in assay [6] (wt strain 1088, 4 μg/ml). Further, in [7] (cells mutated in dpiA, recA, or sfiA, 1 hour exposure, 3 μg/ml), the “cells unable to form colonies” value is on record as 90%. In addition, the “exposure required for the same extent of killing (90%) of wild-type cells” value in [7] (3 μg/ml) worked out at 4 h; in assay [7] (9 μg/ml), 1 h. Besides, the “binding to E. coli PBPs” value in assay [9] is reported as “binds to all 12 E. coli PBPs”.
Regarding `CO/N=C(\C(=O)N[C@@H]1C(=O)N2C(C(=O)O)=C(COC(N)=O)CS[C@H]12)c1ccco1` [cefuroxan], the “expression of the dpi operon” value in assay [1] is given as “stimulated”.
For `CC1=C(C(=O)O)N2C(=O)[C@@H](NC(=O)[C@H](N)c3ccccc3)[C@H]2SC1` [cephalexin], the “expression of the dpi operon” value in assay [1] is “stimulated”. The “binding to E. coli PBPs” value in assay [9] is listed as “bind only to PBP3”.
Regarding `CO[C@@]12[C@H](COC(N)=O)C3=C(C(=O)C(C)=C(N)C3=O)N1C[C@@H]1N[C@@H]12` [mitomycin C], the RecA protein increase was 2.0±0.3 fold in [6] (dpiA::Km null mutant) and 1.5±0.2 fold in assay [6] (wt strain 1088, 4 μg/ml).
Take `CCn1cc(C(=O)O)c(=O)c2ccc(C)nc21` [nalidixic acid]: the “effectiveness (survival) in recA mutant cells versus wild type SC1088” value in assay [7] is recorded as “more effective”.
As for `CCN1CCN(C(=O)N[C@@H](C(=O)N[C@@H]2C(=O)N3[C@@H]2SC(C)(C)[C@@H]3C(=O)O)c2ccccc2)C(=O)C1=O` [pipericillin], the “expression of the dpi operon” value in [1] was “stimulated”. Besides, the “survival relative to the number before addition of antibiotic” value in assay [7] (dpiA mutant bacteria, overnight exposure, 2 μg/ml) is on record as 0.001%; in assay [7] (wild-type bacteria, overnight exposure, 2 μg/ml), 0.01%. For the same compound, the “effectiveness (survival) in recA mutant cells versus wild type SC1088” value in [7] is “more effective”. In addition, the “surviving wild-type bacteria versus dpiA mutant bacteria” value in assay [7] (overnight exposure, 2 μg/ml) was 10 times. For the same compound, in [9], the “binding to E. coli PBPs” value is on record as “bind only to PBP3”.
Take penicillin: in [1], the “expression of the dpi operon” value is reported as “stimulated”.

Source of the values: patent US7592154B2, “Modulating SOS response induction by antimicrobial agents” (The Board of Trustees of the Leland Stanford Junior …, priority 2005, dated 2009).
